13 compounds from ChEMBL document CHEMBL1914295, “Synthesis and biological evaluation of some novel triazol-3-ones as antimicrobial agents” (2011) can be followed below.

Common to all, as to format: functional
Conditions in all cases: read-out: IZ

The subject of test [1] is Candida albicans. The test is described as follows: Antifungal activity against Candida albicans at 200 ug/ml after 48 hrs by disc diffusion method.
Test [2] concerns Klebsiella pneumoniae. In words: Antibacterial activity against Klebsiella pneumoniae at 200 ug/ml after 24 hrs by disc diffusion method. (In general: Agar diffusion results depend on both activity and mobility in agar.)
Test [3] concerns Staphylococcus aureus. In words: Antibacterial activity against Staphylococcus aureus at 100 ug/ml after 24 hrs by disc diffusion method.
Test [4] concerns Bacillus subtilis. In words: Antibacterial activity against Bacillus subtilis at 100 ug/ml after 24 hrs by disc diffusion method.
For test [5], the system named is Aspergillus niger. The test is described as follows: Antifungal activity against Aspergillus niger at 100 ug/ml after 48 hrs by disc diffusion method.
For test [6], the system named is Candida albicans. In words: Antifungal activity against Candida albicans at 100 ug/ml after 48 hrs by disc diffusion method.
For test [7], the system named is Aspergillus niger. The test is described as follows: Antifungal activity against Aspergillus niger at 200 ug/ml after 48 hrs by disc diffusion method.
Test [8] concerns Bacillus subtilis. The test is described as follows: Antibacterial activity against Bacillus subtilis at 200 ug/ml after 24 hrs by disc diffusion method.
In test [9] the test system is Escherichia coli. The test is described as follows: Antibacterial activity against Escherichia coli at 200 ug/ml after 24 hrs by disc diffusion method.
Test [10] concerns Escherichia coli. In words: Antibacterial activity against Escherichia coli at 100 ug/ml after 24 hrs by disc diffusion method.
The subject of test [11] is Fusarium solani. In words: Antifungal activity against Fusarium solani at 100 ug/ml after 48 hrs by disc diffusion method.
Test [12] has as its system Klebsiella pneumoniae. In words: Antibacterial activity against Klebsiella pneumoniae at 100 ug/ml after 24 hrs by disc diffusion method.
Test [13] has as its system Fusarium solani. The test is described as follows: Antifungal activity against Fusarium solani at 200 ug/ml after 48 hrs by disc diffusion method.
Test [14] deals with Staphylococcus aureus. In words: Antibacterial activity against Staphylococcus aureus at 200 ug/ml after 24 hrs by disc diffusion method.

On to `CC(C)Cn1ncn(-c2nc3c(s2)C(C)Sc2sccc2-3)c1=O` (stereo not drawn), for which the zone of inhibition at 200 µg/mL in [1] was found to be 21 mm; in test [2], 12 mm; in test [7] it was 18 mm; in [8] it was 16 mm; in [9], 14 mm; in test [13], 20 mm. Further, the zone of inhibition at 200 µg/mL in [14] is 15 mm. Also, the zone of inhibition at 100 µg/mL in [3] was 12 mm; in [4], 13 mm; in test [5], 16 mm; in test [6], 17 mm; in test [10], 12 mm; in test [11], 16 mm. The zone of inhibition at 100 µg/mL in [12] turned out to be 10 mm.
As for `CC1Sc2sccc2-c2nc(-n3cn[nH]c3=O)sc21` (stereo not drawn), the zone of inhibition at 200 µg/mL in [1] came out at 28 mm; in test [2] it was 20 mm; in test [7], 29 mm; in test [8] it was 23 mm; in test [9] it was 20 mm; in [13], 24 mm. The zone of inhibition at 200 µg/mL in test [14] is 21 mm. Further, the zone of inhibition at 100 µg/mL was 18 mm in [3]; 20 mm in [4]; 26 mm in test [5]; 25 mm in [6]; 15 mm in test [10]; 22 mm in test [11]. Also, the zone of inhibition at 100 µg/mL in test [12] was determined as 17 mm.
On to `CCn1ncn(-c2nc(-c3ccsc3)cs2)c1=O`, for which the zone of inhibition at 200 µg/mL in test [1] was determined as 29 mm; in test [2], 28 mm; in test [7], 24 mm; in test [8] it was 27 mm; in [9], 29 mm; in test [13] it was 32 mm. Also, the zone of inhibition at 200 µg/mL in test [14] was found to be 32 mm. In addition, the zone of inhibition at 100 µg/mL in test [3] is 24 mm; in [4] it was 21 mm; in test [5] it was 21 mm; in [6], 23 mm; in [10], 23 mm; in test [11] it was 29 mm. Besides, the zone of inhibition at 100 µg/mL in test [12] is 26 mm.
As for `O=c1[nH]ncn1-c1nc(-c2ccsc2)cs1`, the zone of inhibition at 200 µg/mL turned out to be 38 mm in [1]; 26 mm in test [2]; 39 mm in test [7]; 29 mm in test [8]; 26 mm in [9]; 37 mm in test [13]. Moreover, in [14], the zone of inhibition at 200 µg/mL is 28 mm. The zone of inhibition at 100 µg/mL in test [3] was 25 mm; in test [4] it was 27 mm; in test [5], 34 mm; in test [6], 35 mm; in test [10], 24 mm; in [11] it was 32 mm. Moreover, the zone of inhibition at 100 µg/mL in test [12] was 22 mm.
Take `CC(=O)N1CCN(c2ccc(OCC3COC(Cn4ccnc4)(c4ccc(Cl)cc4Cl)O3)cc2)CC1` (stereo not drawn) [KETOCONAZOLE]: the zone of inhibition at 200 µg/mL in test [1] was 39 mm; in test [7], 44 mm; in test [13], 42 mm. Also, the zone of inhibition at 100 µg/mL was 41 mm in [5], 36 mm in [6] and 38 mm in test [11].
With `CC1Sc2sccc2-c2nc(-n3cnn(C)c3=O)sc21` (stereo not drawn), the zone of inhibition at 200 µg/mL stood at 24 mm in test [1]; 19 mm in [2]; 23 mm in test [7]; 19 mm in test [8]; 21 mm in [9]; 26 mm in [13]. In test [14], the zone of inhibition at 200 µg/mL amounted to 16 mm. In addition, the zone of inhibition at 100 µg/mL in test [3] amounted to 14 mm; in [4] it was 16 mm; in test [5], 20 mm; in [6] it was 22 mm; in test [10], 18 mm; in [11], 24 mm. In [12], the zone of inhibition at 100 µg/mL was found to be 16 mm.
`COCCCn1ncn(-c2nc(-c3ccsc3)cs2)c1=O`: the zone of inhibition at 200 µg/mL amounted to 28 mm in test [1]; 28 mm in test [2]; 28 mm in test [7]; 26 mm in test [8]; 28 mm in [9]; 36 mm in test [13]. In addition, the zone of inhibition at 200 µg/mL in test [14] is 26 mm. The zone of inhibition at 100 µg/mL in test [3] is 24 mm; in test [4], 23 mm; in test [5] it was 26 mm; in test [6], 24 mm; in [10] it was 24 mm; in test [11] it was 34 mm. The zone of inhibition at 100 µg/mL in [12] was determined as 25 mm.
`N#CCn1ncn(-c2nc(-c3ccsc3)cs2)c1=O`: the zone of inhibition at 200 µg/mL is 32 mm in test [1]; 21 mm in [2]; 29 mm in test [7]; 26 mm in test [8]; 29 mm in test [9]; 34 mm in [13]. For the same compound, the zone of inhibition at 200 µg/mL in test [14] came to 31 mm. Further, the zone of inhibition at 100 µg/mL in test [3] was determined as 28 mm; in test [4] it was 23 mm; in [5], 27 mm; in test [6], 28 mm; in [10], 26 mm; in [11], 28 mm. Also, the zone of inhibition at 100 µg/mL in test [12] worked out at 16 mm.
With `CC(C)Cn1ncn(-c2nc(-c3ccsc3)cs2)c1=O`, the zone of inhibition at 200 µg/mL is 21 mm in [1]; 18 mm in test [2]; 27 mm in test [7]; 18 mm in test [8]; 21 mm in test [9]; 30 mm in [13]. In addition, in [14], the zone of inhibition at 200 µg/mL was found to be 20 mm. The zone of inhibition at 100 µg/mL in test [3] came to 16 mm; in [4] it was 16 mm; in [5] it was 26 mm; in test [6], 17 mm; in [10] it was 17 mm; in [11] it was 26 mm. Moreover, the zone of inhibition at 100 µg/mL in [12] was found to be 15 mm.
With `O=C(N[C@H](CO)[C@H](O)c1ccc([N+](=O)[O-])cc1)C(Cl)Cl` [CHLORAMPHENICOL], the zone of inhibition at 200 µg/mL came to 45 mm in test [2], 41 mm in [8], 44 mm in [9] and 39 mm in test [14]. In addition, the zone of inhibition at 100 µg/mL in [3] is 35 mm; in test [4], 38 mm; in test [10], 40 mm; in test [12], 42 mm.
As to `COCCCn1ncn(-c2nc3c(s2)C(C)Sc2sccc2-3)c1=O` (stereo not drawn), the zone of inhibition at 200 µg/mL is 39 mm in test [1]; 24 mm in [2]; 41 mm in test [7]; 33 mm in [8]; 25 mm in [9]; 44 mm in test [13]. The zone of inhibition at 200 µg/mL in [14] is 28 mm. The zone of inhibition at 100 µg/mL in test [3] amounted to 23 mm; in test [4] it was 31 mm; in test [5], 37 mm; in test [6], 36 mm; in test [10], 22 mm; in test [11], 39 mm. Further, the zone of inhibition at 100 µg/mL in [12] was 21 mm.
As for `CC1Sc2sccc2-c2nc(-n3cnn(C(C)C)c3=O)sc21` (stereo not drawn), the zone of inhibition at 200 µg/mL in test [1] came to 21 mm; in test [2] it was 16 mm; in [7] it was 22 mm; in [8], 15 mm; in test [9] it was 18 mm; in test [13], 19 mm. The zone of inhibition at 200 µg/mL in [14] worked out at 16 mm. The zone of inhibition at 100 µg/mL in [3] stood at 14 mm; in test [4] it was 13 mm; in [5] it was 17 mm; in test [6], 16 mm; in [10] it was 15 mm; in test [11] it was 17 mm. The zone of inhibition at 100 µg/mL in test [12] was 14 mm.
Consider `CC1Sc2sccc2-c2nc(-n3cnn(CC#N)c3=O)sc21` (stereo not drawn), for which the zone of inhibition at 200 µg/mL in test [1] came to 18 mm; in test [2] it was 14 mm; in test [7] it was 19 mm; in test [8], 18 mm; in test [9] it was 13 mm; in [13], 18 mm. Also, the zone of inhibition at 200 µg/mL in [14] is 17 mm. In addition, the zone of inhibition at 100 µg/mL in [3] came out at 13 mm; in [4] it was 15 mm; in test [5] it was 16 mm; in test [6] it was 14 mm; in test [10] it was 11 mm; in [11], 15 mm. The zone of inhibition at 100 µg/mL in test [12] was 11 mm.
